Values quoted from earlier work as cited in publication PMC13612640 (Cancer Chemotherapy and Pharmacology, 2026).

Set-up: method as in PMID 41165508

COc1ccc(F)cc1C(=O)NCc1ccc(-c2nn([C@@H](C)C(F)(F)F)c(N)c2C(N)=O)cc1 [pirtobrutinib]
Plasma fraction unbound (fu): 0.046
